Assays:
[1] = tested on: Magnaporthe Grisea (Pyricularia oryzae); experiment: whole plant or invertebrate; type: in vivo; settings: 144 h, read-out: inhibition of fungal infestation
Puccinia Recondita = experiment: Puccinia recondita / wheat / preventive (brown rust); type: in vivo; settings: 264 h, spray, wheat plants cv. Arina, assessed 11 days after inoculation, read-out: inhibition of fungal infestation
Experimental: Puccinia Recondita/Wheat/Preventive (Action Against Brown Rust on Wheat) 1 week old wheat plants cv. Arina are treated with the formulated test compound in a spray chamber. One day after application wheat plants are inoculated by spraying a spore suspension ([…] uredospores/ml) on the test plants. After an incubation period of 1 day at 20° C. and 95% r. h. plants are kept for 10 days 20° C./18° C. (day/night) and 60% r.h. in a greenhouse. The disease incidence is assessed 11 days after inoculation.

Septoria Tritici = experiment: Septoria tritici / wheat / preventive (leaf spot); type: in vivo; settings: Zymoseptoria tritici, spray, wheat plants cv. Riband, assessed 16-18 days after inoculation, read-out: inhibition of fungal infestation
Experimental: Septoria Tritici/Wheat/Preventive (Action Against Septoria Leaf Spot on Wheat) 2 weeks old wheat plants cv. Riband are treated with the formulated test compound in a spray chamber. One day after application wheat plants are inoculated by spraying a spore suspension (10^6 conidia/ml) on the test plants. After an incubation period of 1 day at 22° C./21° C. and 95% r. h. plants are kept at 22° C./21° C. and 70% r.h. in a greenhouse. The disease incidence is assessed 16-18 days after inoculation.

[2] = tested on: Prenophora Teres (Helminthosporium Teres); experiment: Pyrenophora teres / barley / preventive (net blotch); type: in vivo; settings: 96 h, spray, barley plants cv. Regina, assessed 4 days after inoculation, read-out: inhibition of fungal infestation
Experimental: Prenophora Teres (Helminthosporium Teres)/Barley/Preventive (Action Against Net Blotch on Barley) 1-week-old barley plants cv. Regina are treated with the formulated test compound in a spray chamber. Two days after application barley plants are inoculated by spraying a spore suspension (2.6×10^4 conidia/ml) on the test plants. After an incubation period of 4 days at 20° C. and 95% r. h. the disease incidence is assessed.

Uncinula Necator = experiment: Uncinula necator / grape / preventive (powdery mildew); type: in vivo; settings: Erysiphe necator, 168 h, spray, grape seedlings cv. Gutedel, assessed 7 days after inoculation, read-out: inhibition of fungal infestation
Experimental: Uncinula Necator/Drape/Preventive (Action Against Powdery Mildew on Grape) 5 weeks old grape seedlings cv. Gutedel are treated with the formulated test compound in a spray chamber. One day after application grape plants are inoculated by shaking plants infected with grape powdery mildew above the test plants. After an incubation period of 7 days at 24° C./22° C. and 70% r. h. under a light regime of 14/10 h (light/dark) the disease incidence is assessed.

Alternaria Solani = experiment: Alternaria solani / tomato / preventive; type: in vivo; settings: 96 h, spray, tomato plants cv. Roter Gnom, assessed 4 days after inoculation, read-out: inhibition of fungal infestation
Experimental: (§1) Alternaria Solani/Tomato/Preventive (Action Against Alternaria on Tomato) 4 weeks old tomato plants cv. Roter Gnom are treated with the formulated test compound in a spray chamber. Two days after application tomato plants are inoculated by spraying a spore suspension on the test plants. After an incubation period of 4 days at 22° C./18° C. and 95% r. h. in a greenhouse the disease incidence is assessed.

Botrytis Cinerea = experiment: Botrytis cinerea / tomato / preventive; type: in vivo; settings: 72 h, spray, tomato plants cv. Roter Gnom, assessed 3 days after inoculation, read-out: inhibition of fungal infestation
Experimental: as §1, with “Botrytis Cinerea/Tomato/Preventive (Action” for “Alternaria Solani/Tomato/Preventive (Action”, “Against Botrytis” for “Against Alternaria”, “of 3” for “of 4”, “at 20°” for “at 22° C./18°”

Cc1nnc(F)c(-c2c(F)cc(F)cc2F)c1-c1ccc(Cl)cc1 [I.c.127, 4-(4-chlorophenyl)-6-fluoro-3-methyl-5-(2,4,6-trifluorophenyl)-pyridazine]
≥ 80%: inhibition at 200 ppm [1] | inhibition at 200 ppm (Puccinia Recondita) | inhibition at 200 ppm (Septoria Tritici) | inhibition at 200 ppm [2] | inhibition at 200 ppm (Uncinula Necator) | inhibition at 200 ppm (Alternaria Solani) | inhibition at 200 ppm (Botrytis Cinerea)

Cc1nnc(OCC(F)(F)F)c(-c2c(F)cc(F)cc2F)c1-c1ccc(Cl)cc1 [I.c.129, 4-(4-chlorophenyl)-3-methyl-6-(2,2,2-trifluoroethoxy)-5-(2,4,6-trifluorophenyl)-pyridazine]
105 to 108 °C: melting point
≥ 80%: inhibition at 200 ppm (Septoria Tritici) | inhibition at 200 ppm (Uncinula Necator) | inhibition at 200 ppm (Alternaria Solani)

From patent publication US20100113457A1, “NOVEL PYRIDAZINE DERIVATIVES” (SYNGENTA CROP PROTECTION, INC., priority 2006, published 2010)
